Measured values published in ChEMBL document CHEMBL5370634, “Synthesis and Antifungal Evaluation of New Azole Derivatives against Candida albicans” (ACS Med Chem Lett, 2023).
≈ marks a conversion by molar mass, not a printed value. Calls of active or inactive are those of the source. The rule behind the calls is not given here.

What was measured:
Candida albicans [1] = experiment: Antibiofilm activity against Candida albicans SC5314 assessed as inhibition of biofilm formation at 0.3 ug/mL incubated for 24 hrs by crystal violet staining based inverted microscopy analysis; type: functional, organism-based; conditions: dose 0.3 µg/ml
Candida albicans [2] = experiment: Induction of cell membrane permeability in Candida albicans SC5314 at 0.3 ug/mL incubated for 16 hrs by […] iodide staining based fluorescence microscopy; type: functional, organism-based; conditions: dose 0.3 µg/ml
Candida albicans [3] = experiment: Antifungal activity against Candida albicans SC5314 incubated for 24 hrs by microdilution method; type: functional
Candida albicans [4] = experiment: Antifungal activity against Candida albicans SC5314FR incubated for 24 hrs by microdilution method; type: functional
[5] = target: Lanosterol 14-alpha demethylase (Candida albicans (strain SC5314 / ATCC MYA-2876) (Yeast), UniProt P10613); experiment: Inhibition of CYP51 in Candida albicans SC5314 assessed as reduction in ergosterol content at 0.3 ug/mL incubated for 16 hrs by spectrophotometry analysis; conditions: at 0.3 µg/mL
Sequence of Lanosterol 14-alpha demethylase (P10613 whole entry): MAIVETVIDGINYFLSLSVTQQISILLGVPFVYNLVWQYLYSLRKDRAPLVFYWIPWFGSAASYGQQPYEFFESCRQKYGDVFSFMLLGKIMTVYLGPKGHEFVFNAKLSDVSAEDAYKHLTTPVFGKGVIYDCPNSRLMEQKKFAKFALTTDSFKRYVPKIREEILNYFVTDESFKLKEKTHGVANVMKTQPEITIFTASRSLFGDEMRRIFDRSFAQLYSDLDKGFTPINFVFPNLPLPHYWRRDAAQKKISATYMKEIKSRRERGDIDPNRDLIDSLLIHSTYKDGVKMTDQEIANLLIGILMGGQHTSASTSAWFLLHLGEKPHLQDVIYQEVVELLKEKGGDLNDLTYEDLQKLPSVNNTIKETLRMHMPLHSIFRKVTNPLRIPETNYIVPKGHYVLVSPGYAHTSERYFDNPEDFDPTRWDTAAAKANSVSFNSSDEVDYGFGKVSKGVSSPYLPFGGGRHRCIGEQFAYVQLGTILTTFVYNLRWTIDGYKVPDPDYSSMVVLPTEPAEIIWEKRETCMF

Candida albicans [6] = experiment: Induction of morphological changes in Candida albicans SC5314 assessed as appearance of slightly blurred cytoplasm at 0.3 ug/ml incubated for 16 hrs by TEM analysis; type: functional, organism-based; conditions: dose 0.3 µg/ml
Candida albicans [7] = experiment: Antifungal activity against Candida albicans SC5314FR assessed as fractional inhibitory concentration index incubated for 24 hrs in presence of fluconazole by microdilution method; type: functional
Candida albicans [8] = experiment: Antifungal activity against Candida albicans SC5314 assessed as fractional inhibitory concentration index incubated for 24 hrs in presence of fluconazole by microdilution method; type: functional
Candida albicans [9] = experiment: Antifungal activity against Candida albicans SC5314 incubated for 24 hrs in presence of fluconazole by microdilution method; type: functional
Candida albicans [10] = experiment: Antifungal activity against Candida albicans SC5314FR incubated for 24 hrs in presence of fluconazole by microdilution method; type: functional, SC5314

SMILES	inhibition (Candida albicans [1])	Activity (Candida albicans [2])	MIC50 (Candida albicans [3]) [µg/mL]	MIC50 (Candida albicans [4]) [µg/mL]	inhibition (INH) [5]	Activity (Candida albicans [6])	fractional inhibitory concentration index (FICI) (Candida albicans [7])	fractional inhibitory concentration index (FICI) (Candida albicans [8])	MIC50 (Candida albicans [9]) [µg/mL]	MIC50 (Candida albicans [10]) [µg/mL]
OC(Cn1cncn1)(Cn1cncn1)c1ccc(F)cc1F [FLUCONAZOLE]	inactive	inactive	1.8 (≈ 5.88 µM)	> 200	Not Active	Active				
CC(=O)N1CCN(c2ccc(OCCN(Cc3ccc(Br)cc3)CC(O)(Cn3cncn3)c3ccc(F)cc3F)cc2)CC1 (stereo unspecified)			5.71 (≈ 8.53 µM)	> 200			2	1.58	2.17	> 200
CC(=O)N1CCN(c2ccc(OCCN(Cc3ccc(C#N)cc3)CC(O)(Cn3cncn3)c3ccc(F)cc3F)cc2)CC1 (stereo unspecified)			0.99 (≈ 1.61 µM)	> 200			2	1.08	0.68	> 200
CC(=O)N1CCN(c2ccc(OCCN(CC(O)(Cn3cncn3)c3ccc(F)cc3F)S(=O)(=O)c3ccc(Cl)cc3)cc2)CC1 (stereo unspecified)			8.49 (≈ 12.6 µM)	33.2 (≈ 49.2 µM)			13.42	2.61	3.88	> 200
CC(=O)N1CCN(c2ccc(OCCN(CC(O)(Cn3cncn3)c3ccc(F)cc3F)S(=O)(=O)c3ccc(F)cc3)cc2)CC1 (stereo unspecified)			0.1 (≈ 0.152 µM)	> 200			2	1.69	0.16	> 200
CC(=O)N1CCN(c2ccc(OCCN(Cc3ccc(Cl)cc3)CC(O)(Cn3cncn3)c3ccc(F)cc3F)cc2)CC1 (stereo unspecified)			9.32 (≈ 14.9 µM)	> 200			2	3.88	5.85	> 200
C#CCN(CCOc1ccc(N2CCN(C(C)=O)CC2)cc1)CC(O)(Cn1cncn1)c1ccc(F)cc1F (stereo unspecified)			9.31 (≈ 17.3 µM)	> 200			2	2.27	3.42	> 200
CC(=O)N1CCN(c2ccc(OCCN(CC(O)(Cn3cncn3)c3ccc(F)cc3F)S(=O)(=O)CCCCl)cc2)CC1 (stereo unspecified)			0.66 (≈ 1.03 µM)	> 200			2	0.33	0.16	> 200
CC(=O)N1CCN(c2ccc(OCCN(Cc3ccc(C(F)(F)F)cc3)CC(O)(Cn3cncn3)c3ccc(F)cc3F)cc2)CC1 (stereo unspecified)			1.83 (≈ 2.78 µM)	> 200			2	1.94	1.76	> 200
CC(=O)N1CCN(c2ccc(OCCN(CC(O)(Cn3cncn3)c3ccc(F)cc3F)S(=O)(=O)c3ccc(Br)cc3)cc2)CC1 (stereo unspecified)			0.2 (≈ 0.278 µM)	> 200			2	0.22	0.04	> 200
COc1ccc(S(=O)(=O)N(CCOc2ccc(N3CCN(C(C)=O)CC3)cc2)CC(O)(Cn2cncn2)c2ccc(F)cc2F)cc1 (stereo unspecified)			7.27 (≈ 10.8 µM)	> 200			2	0.5	0.72	> 200
